From PubChem BioAssay (NCI) come the findings set out here.

Test systems include A498 renal; CCRF-CEM leukemia; HCC-2998 colon; HOP-62 NSCLC; HT29 colon; K-562 leukemia; NCI/ADR-RES ovarian; OVCAR-4 ovarian; OVCAR-5 ovarian; SNB-75 CNS.
Common to all, as to assay: NCI-60 cell line screen, 48 h

Several values for one entry are separate records, joined by “and”; a condition that tells them apart may be missing. Equal entries are not always repeated.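 The compound was tested at five concentrations on cells cultured in 96-well plates, with a 48-hour exposure period. GI50 is the concentration that inhibits growth by half. Definition used: TGI = concentration required for complete inhibition of growth.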

Turning to `CN1CCN(CCCn2c(=O)c3sc4ncccc4c3n3nnc(-c4ccccc4)c23)CC1`, the GI50 in the experiment on A498 renal is 0.159 µM; in the experiment with CCRF-CEM leukemia, 1.55 µM; in the experiment with HCC-2998 colon, 6.77 µM; with HOP-62 NSCLC, 8.19 µM; with HT29 colon, 2.89 µM; with K-562 leukemia, 0.881 µM. The GI50 with NCI/ADR-RES ovarian is 7.19 µM; with OVCAR-4 ovarian, 7.27 µM; with OVCAR-5 ovarian it was 8.85 µM; in the experiment with SNB-75 CNS, 6.82 µM. Moreover, the TGI with A498 renal was 9.37 µM; with CCRF-CEM leukemia, 5.29 µM; with HCC-2998 colon, 13.4 µM; in the experiment on HOP-62 NSCLC it was 15.3 µM; in the experiment on HT29 colon it was 9.54 µM; in the experiment with K-562 leukemia it was 2.05 µM. Moreover, the TGI was determined as 14.2 µM in the experiment with NCI/ADR-RES ovarian, 14 µM in the experiment with OVCAR-4 ovarian, 16.9 µM in the experiment on OVCAR-5 ovarian and 13.3 µM in the experiment with SNB-75 CNS.
In the case of `Nc1ncnc2n[nH]c(Nc3ccc(F)cc3)c12`, the GI50 with A498 renal was 8.33 µM; in the experiment with CCRF-CEM leukemia, 18.4 µM; in the experiment on HCC-2998 colon, 51.9 µM; in the experiment on HOP-62 NSCLC, 64.8 µM; in the experiment with HT29 colon, 25.3 µM; in the experiment on K-562 leukemia it was 15.6 µM. For the same compound, the GI50 in the experiment with NCI/ADR-RES ovarian is 65.3 µM; in the experiment with OVCAR-4 ovarian it was 19 µM; in the experiment on OVCAR-5 ovarian it was 60 µM; with SNB-75 CNS, 31.7 µM. The TGI with A498 renal was 92.8 µM; in the experiment with CCRF-CEM leukemia it was 72.4 µM; in the experiment on HCC-2998 colon, more than 100 µM; with HOP-62 NSCLC, more than 100 µM; in the experiment on HT29 colon it was more than 100 µM; in the experiment with K-562 leukemia, more than 100 µM. In addition, the TGI was more than 100 µM in the experiment on NCI/ADR-RES ovarian, 75.2 µM in the experiment on OVCAR-4 ovarian, more than 100 µM in the experiment with OVCAR-5 ovarian and more than 100 µM in the experiment on SNB-75 CNS.
As to `O=C(Nc1ccc(Cl)cc1)c1cccc(NC2=C(Cl)C(=O)N(Cc3ccccc3)C2=O)c1`, the GI50 was 19.9 µM in the experiment with A498 renal; 2.73 µM in the experiment on CCRF-CEM leukemia; 3.83 µM in the experiment with HCC-2998 colon; 10.3 µM in the experiment on HOP-62 NSCLC; 32.4 µM in the experiment on HT29 colon; 5.83 µM with K-562 leukemia. In addition, the GI50 in the experiment on NCI/ADR-RES ovarian was 10.3 µM; with OVCAR-4 ovarian, 12.5 µM; in the experiment on OVCAR-5 ovarian it was 13.4 µM; with SNB-75 CNS it was 8.88 µM. Further, the TGI was 47.1 µM in the experiment with A498 renal; 12.3 µM with CCRF-CEM leukemia; 20 µM with HCC-2998 colon; 22 µM in the experiment on HOP-62 NSCLC; more than 100 µM in the experiment on HT29 colon; 28.3 µM in the experiment with K-562 leukemia. The TGI in the experiment on NCI/ADR-RES ovarian came out at 24.3 µM; with OVCAR-4 ovarian, 34.8 µM; in the experiment with OVCAR-5 ovarian, 36.6 µM; in the experiment on SNB-75 CNS, 25.1 µM.
On to `NC1(C(=O)OCc2ccccc2)CCCC1`, for which the TGI with A498 renal is more than 100 µM; in the experiment on CCRF-CEM leukemia, more than 100 µM; in the experiment on HCC-2998 colon it was 76.7 µM; in the experiment on HOP-62 NSCLC, 46.7 µM; with HT29 colon, more than 100 µM; with K-562 leukemia, 59.6 µM. For the same compound, the TGI in the experiment on NCI/ADR-RES ovarian was more than 100 µM; in the experiment on OVCAR-4 ovarian it was 37.3 µM; in the experiment with OVCAR-5 ovarian it was 85.7 µM; in the experiment with SNB-75 CNS, 35.1 µM.
Consider `CCCCCCCC(=O)SCC/C=C/[C@@H]1CC(=O)NCc2cc(ccn2)C2=N[C@@](C)(CS2)C(=O)N[C@@H](C(C)C)C(=O)O1`, for which the GI50 in the experiment with A498 renal is 0.00591 µM; in the experiment on CCRF-CEM leukemia, 0.0231 µM; in the experiment on HCC-2998 colon, 0.0256 µM; in the experiment with HOP-62 NSCLC, 0.00958 µM; in the experiment with HT29 colon, 0.0112 µM; in the experiment on K-562 leukemia, 0.0248 µM. The GI50 in the experiment with NCI/ADR-RES ovarian was 0.241 µM; in the experiment with OVCAR-4 ovarian it was 0.0535 µM; in the experiment on OVCAR-5 ovarian, less than 0.0113 µM; with SNB-75 CNS, 0.0079 µM. Further, the TGI is 0.0418 µM in the experiment with A498 renal; more than 33.3 µM with CCRF-CEM leukemia; 0.245 µM in the experiment on HCC-2998 colon; more than 33.3 µM with HT29 colon; more than 33.3 µM in the experiment with K-562 leukemia; more than 33.3 µM with NCI/ADR-RES ovarian. Besides, the TGI with OVCAR-4 ovarian, with OVCAR-5 ovarian and with SNB-75 CNS was more than 33.3 µM in each case.
For `O=C(CCc1nnc2sc(-c3ccc(Cl)cc3Cl)nn12)c1nc2ncccc2[nH]1`, the GI50 is 1.11 µM with A498 renal; 2.68 µM in the experiment with CCRF-CEM leukemia; 1.77 µM in the experiment with HCC-2998 colon; 2.18 µM with HOP-62 NSCLC; 2.93 µM with HT29 colon; 2.44 µM in the experiment on K-562 leukemia. The GI50 with NCI/ADR-RES ovarian is 2.71 µM; in the experiment on OVCAR-4 ovarian it was 1.92 µM; in the experiment on OVCAR-5 ovarian it was 2.33 µM; with SNB-75 CNS, 0.459 µM. The TGI is 2.41 µM with A498 renal; 9 µM with CCRF-CEM leukemia; 3.32 µM in the experiment with HCC-2998 colon; 6.77 µM with HOP-62 NSCLC; 11.8 µM in the experiment with HT29 colon; more than 100 µM with K-562 leukemia. In addition, the TGI with NCI/ADR-RES ovarian was 9.12 µM; in the experiment on OVCAR-4 ovarian it was 4.26 µM; in the experiment with OVCAR-5 ovarian, 5.29 µM; in the experiment on SNB-75 CNS it was 3.79 µM.
On to `O=c1c2sccc2n(CC2COc3ccccc3O2)c(=O)n1O` (stereo unspecified), for which the GI50 was 13.3 µM in the experiment on A498 renal; 7 µM in the experiment on CCRF-CEM leukemia; 7.6 µM with HCC-2998 colon; 8.41 µM in the experiment with HOP-62 NSCLC; 24.1 µM in the experiment with HT29 colon; 4.1 µM in the experiment with K-562 leukemia. Further, the GI50 is 23 µM in the experiment on NCI/ADR-RES ovarian, 13.9 µM with OVCAR-4 ovarian, 40 µM in the experiment on OVCAR-5 ovarian and 3.81 µM in the experiment on SNB-75 CNS. The TGI is 38.1 µM in the experiment with A498 renal; 94.4 µM in the experiment on CCRF-CEM leukemia; more than 100 µM in the experiment with HCC-2998 colon; more than 100 µM in the experiment with HOP-62 NSCLC; more than 100 µM in the experiment on HT29 colon; more than 100 µM in the experiment on K-562 leukemia. Further, the TGI was more than 100 µM in the experiment with NCI/ADR-RES ovarian, 98.7 µM with OVCAR-4 ovarian, more than 100 µM with OVCAR-5 ovarian and 56 µM in the experiment on SNB-75 CNS.
For `CN(C)CCSC1=Nc2ccc(Cl)cc2C(c2ccccc2Cl)=NC1`, the GI50 was 18.7 µM and > 100 µM with A498 renal; 21.5 µM and 46.2 µM in the experiment on CCRF-CEM leukemia; 13.4 µM and > 100 µM in the experiment on HCC-2998 colon; 15.8 µM and > 100 µM in the experiment with HOP-62 NSCLC; 15 µM and 40.6 µM in the experiment on HT29 colon; 15 µM and 42.4 µM with NCI/ADR-RES ovarian. For the same compound, the GI50 in the experiment on OVCAR-5 ovarian was 18.6 µM and > 100 µM. Further, the TGI is 34.2 µM and > 100 µM with A498 renal; 82.1 µM and > 100 µM with CCRF-CEM leukemia; 30.3 µM and > 100 µM in the experiment on HCC-2998 colon; 32.1 µM and > 100 µM in the experiment with HOP-62 NSCLC; 35.4 µM and > 100 µM with HT29 colon; more than 100 µM in the experiment with K-562 leukemia. For the same compound, the TGI with NCI/ADR-RES ovarian is 37.1 µM and > 100 µM; in the experiment with OVCAR-4 ovarian, more than 100 µM; with OVCAR-5 ovarian, 34.4 µM and > 100 µM; with SNB-75 CNS it was 33.1 µM and > 100 µM.
